# Test results as given in US6410515B1, “Peptide, a method for its preparation and a pharmaceutical composition containing the peptide” (Immunotech Developments Inc., priority 1995, dated 2002).
# How the values were obtained:
# [1] = test system: allogenic bone marrow (C57B1 donor, F1 (CBA×C57B1) recipient); experiment: Taking of allogenic bone marrow transplant and survival; format: in vivo, mice
# Description: The preparations were administered daily for the first 5 days after transplantation of bone marrow transplants of donor mice C57B1 to lethally irradiated recipient mice F1 (CBA×C57B1), starting from the 1st hour after the transplantation.
# [2] = test system: Splenic cells of the mice; experiment: Concavalin A-stimulated proliferation of splenic cells (3H-thymidine); format: cell-based, Balb/c mice; conditions: 48 h, control 61467
# Description: The biological effect of the D-iGlu-D-Trp (iDD) was studied in Balb/c mice. […] The preparation under study was added at the beginning of the culture. Concavalin A was used as a mitogen, in a final concentration of 2 μg per well. The plates were incubated at 37° C. and in 5% CO2 for 48 h. 3H-thymidine was incorporated into the cells in the amount of […], 24 h prior to the end of the culture. Proliferation of the cells was measured with the use of a scintillation c-counter and expressed in counts per minute (CPM).
# [3] = test system: patients with cytopenias of immune origin; experiment: Clinical study: blood indices and lymphocyte subpopulations; format: in vivo; conditions: for CD4+/CD8+ ratio After iDD treatment: normal 0.7-3.3; for % of cells After iDD treatment: CD4−CD8+ T-Suppressers: normal 18.9-47.9; for % of cells After iDD treatment: CD4+CD8− T-helpers: normal 31.4-63.8
# Description: The peptide iDD was given to patients with cytopenias of immune origin and its effect on hemopoietic status was assessed using a number of immunological tests characterising both humoral and cellular immunity.
# The iDD was administered 0.1 mg in a 1 ml dose intranasally (once or twice in divided doses) for 5 days. The regime was repeated after a two week interval. For patients receiving steroids and cytostatics, iDD was administered during the therapy or before the cytostatic treatment.
# Below are cited the examples of indices dynamics in some patients.
substance,measurement,setting,value
H-D-iGlu-D-Trp-OH [iDD],"CFU-S taking root, %","[1]; C57B1 marrow to F1, Cyclosporin A 25μg/kg sc, iDD 10μg/kg ip, untreated 17,3",43%
same,Average colony count,"[1]; C57B1 marrow to F1, daily 5 days, Cyclosporin A 25μg/kg sc, iDD 10μg/kg ip, per 10^5 cells, untreated 1,7 ± 0,3","4,2 ± 0,3"
same,MCL (Medium continuation of life),"[1]; after 42 days, control 14,3","6,0"
same,"Survived mice, %","[1]; after 42 days, control 50",93%
same,"CPMI (proliferation, 3H-thymidine)",[2]; Preparation dose 1 μcg/ml,68594 CPM
same,"CPMI (proliferation, 3H-thymidine)",[2]; Preparation dose 5 μcg/ml,63428 CPM
same,"CPMI (proliferation, 3H-thymidine)",[2]; Preparation dose 10 μcg/ml,20043 CPM
same,"CPMI (proliferation, 3H-thymidine)",[2]; Preparation dose 20 μcg/ml,13222 CPM
same,"Absolute count after iDD: CD3−CD16,56+ nat. killers","[3]; Patient A, before 0.164",0.108 bln/l
same,Absolute count after iDD: CD3+HLA−DR+ activated T-lymphocytes,"[3]; Patient A, before 0.388",0.251 bln/l
same,Absolute count after iDD: CD4−CD8+ T-Suppressers,"[3]; Patient A, before 0.657",0.305 bln/l
same,Absolute count after iDD: CD4+CD8− T-helpers,"[3]; Patient A, before 0.769",0.522 bln/l
same,Absolute count after iDD: CD45++CD14− lymphocytes,"[3]; Patient A, before 1.6",0.9 bln/l
same,Haemoglobin content,"[3]; Patient A, iDD, no steroids",106 g/L
same,CD4+/CD8+ ratio After iDD treatment,"[3]; Patient A, test sample 1.2",1.7
same,% of cells After iDD treatment: CD45+CD14+ monocytes,"[3]; Patient A, test sample 6.1",3.3%
same,"% of cells After iDD treatment: CD3−CD16,56+ nat. killers","[3]; Patient A, test sample 10.3",12.0%
same,% of cells After iDD treatment: CD3+HLA−DR+ activated T-lymphocytes,"[3]; Patient A, test sample 24.3, normal 2.8-17.3",27.9%
same,% of cells After iDD treatment: CD45++CD14− lymphocytes,"[3]; Patient A, test sample 33.2",34.8%
same,% of cells After iDD treatment: CD4−CD8+ T-Suppressers,"[3]; Patient A, test sample 41.1",33.9%
same,% of cells After iDD treatment: CD45+CD14− granulocytes,"[3]; Patient A, test sample 41.4",48.5%
same,% of cells After iDD treatment: CD4+CD8− T-helpers,"[3]; Patient A, test sample 48.1",58.0%
same,"Absolute count after iDD: CD3−CD16,56+ nat. killers","[3]; Patient K, before 0.057",0.054 bln/l
same,Absolute count after iDD: CD4+CD8− T-helpers,"[3]; Patient K, before 0.614",0.393 bln/l
same,Absolute count after iDD: CD4−CD8+ T-Suppressers,"[3]; Patient K, before 0.712",0.510 bln/l
same,Absolute count after iDD: CD45++CD14− lymphocytes,"[3]; Patient K, before 1.68",1.09 bln/l
same,CD4+/CD8+ ratio After iDD treatment,"[3]; Patient K, test sample 0.8",0.8
same,"% of cells After iDD treatment: CD3−CD16,56+ nat. killers","[3]; Patient K, test sample 3.4, normal 4.8-26.7",5.0%
same,% of cells After iDD treatment: CD45+CD14+ monocytes,"[3]; Patient K, test sample 5.3",5.2%
same,% of cells After iDD treatment: CD45++CD14− lymphocytes,"[3]; Patient K, test sample 26.0",20.2%
same,% of cells After iDD treatment: CD4+CD8− T-helpers,"[3]; Patient K, test sample 36.3",36.1%
same,% of cells After iDD treatment: CD4−CD8+ T-Suppressers,"[3]; Patient K, test sample 44.5",46.8%
same,% of cells After iDD treatment: CD45+CD14− granulocytes,"[3]; Patient K, test sample 55.8",74.7%
